Results on one substance are retold here after patent US6967079B2, “Pyrimidine derivatives for labeled binding partners” (ISIS Pharmaceuticals, Inc., priority 1993, dated 2005).

The nature of the series: Fluorescence excitation and emission wavelengths. Format: physicochemical. Also on record: unit not given here. The settings on record: deoxyriboside compound.

In the case of “2′-Deoxphenothiazine [phenothiazine deoxyriboside]”, the “emission wavelength (EM)” value is reported as 492.
